Here are results for one molecule from patent publication US20160238617A1, “[…] AND METHODS […] TO INNER EAR DISORDERS” (THE UNIVERSITY OF CONNECTICUT, priority 2015, published 2016).

The subject of data set [1] is prestin. The data set is described as follows: serum prestin concentration in mice treated with cisplatin. Type of data set: in vivo. The conditions noted are these: same time course up to two weeks after exposure. How it is done:
Although the hearing threshold measured by ABR was unaffected, prestin levels continued to change after exposure to cisplatin.
The ototoxin drug cisplatin (a commonly used chemotherapeutic agent) was administered and then functional assessment of hearing and measurement of prestin were carried out at several intervals up to two weeks after exposure. Hearing was assessed using a standard testing protocol called click-evoked auditory brainstem response (ABR) (FIG. 13).

Data set [2] has as its system prestin. As to the kind of experiment: serum prestin level in cisplatin-treated rats. Type of data set: in vivo. The note with it: 72 hours after treatment, compared to controls. An excerpt: Rats are more vulnerable to ototoxic damage than mice.

Consider `N.N.[Cl][Pt][Cl]` [cisplatin], for which the “serum concentrations of prestin” value in data set [1] is recorded as “increasing”. Besides, the serum prestin level entry in data set [2] is given as “elevated”.
